Patent US11559538B2, “Substituted 1,2-oxaborolan-2-ols as PDE4 inhibitors” (Pfizer Inc., priority 2018, dated 2023)

Assays:
[1] = tested on: IL-13; experiment: Cytokine assay: IL-13 release from PHA-L stimulated human PBMCs; type: cell-based; settings: Homo sapiens, PBMC, read-out: IL13 IC50
Summary of the method: (§1)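 Cytokines IL-4, IL-13 and IFNγ quantified by HTRF after 48 h, 37 °C culture of human PBMCs activated with PHA-L at 3.5 μg/mL final. Test compound, 4-fold dilutions from approximately 10 μM in 0.25% DMSO, was added briefly before stimulation; IC50 derived by four-parameter logistic regression.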

[2] = tested on: IFNγ; experiment: Cytokine assay: IFNγ release from PHA-L stimulated human PBMCs; type: cell-based; settings: Homo sapiens, PBMC
Summary of the method: as §1

[3] = target: PDE4B (aa 152-484, Uniprot ID Q07343) (Homo sapiens (Human), UniProt Q07343); experiment: PDE4 SPA assay (scintillation proximity assay); type: biochemical; settings: read-out: PDE4B2 IC50
Summary of the method: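 Scintillation proximity read-out after a 30 min room-temperature reaction of ~81.6 pM PDE4B catalytic fragment (aa 152-484) with 1 μM tritiated/unlabeled cAMP, pH 7.5 Tris buffer with MgCl2 and Brij 35. Compound given ~10 min beforehand, 4-fold dilutions, ~2% DMSO; IC50 from four-parameter logistic curve.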

[4] = tested on: IL-4; experiment: Cytokine assay: IL-4 release from PHA-L stimulated human PBMCs; type: cell-based; settings: Homo sapiens, PBMC, read-out: IL4 IC50
Summary of the method: as §1

Chain of PDE4B (aa 152-484, Uniprot ID Q07343) (Q07343 324-656): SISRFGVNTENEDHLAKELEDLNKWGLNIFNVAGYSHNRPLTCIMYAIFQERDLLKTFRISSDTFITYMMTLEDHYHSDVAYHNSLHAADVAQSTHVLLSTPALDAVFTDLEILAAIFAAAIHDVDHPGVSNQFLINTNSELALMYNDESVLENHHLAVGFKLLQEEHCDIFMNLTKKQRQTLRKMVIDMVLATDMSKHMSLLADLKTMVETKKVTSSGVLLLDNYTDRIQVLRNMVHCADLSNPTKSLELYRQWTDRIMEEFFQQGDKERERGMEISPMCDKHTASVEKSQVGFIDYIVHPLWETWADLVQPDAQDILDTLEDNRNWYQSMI

With `CCOc1ccc(-c2cncc(C3COB(O)C3)c2)cc1OC` (centres unmarked) [Example 187, 4-(5-(4-ethoxy-3-methoxyphenyl)pyridin-3-yl)-1,2-oxaborolan-2-ol] as the molecule, how does the IC50 [1] read?
Its IC50 is 1420 nM.

And the IC50 [2]?
Its IC50 is 8.84 nM.

What about the IC50 [3] of the same molecule?
Its IC50 is 4.28 nM.

What about the IC50 [4] of the same molecule?
Its IC50 is 41.1 nM.

`CCOc1c(OC)ccc(-c2cccc(C3COB(O)C3)c2)c1C#N` (centres unmarked) [Example 191, 3-ethoxy-3′-(2-hydroxy-1,2-oxaborolan-4-yl)-4-methoxy-[1,1′-biphenyl]-2-carbonitrile] was tested. Which IC50 [1] did it give?
The IC50 was 1500 nM.

And the IC50 [2]?
Its IC50 is 4.42 nM.

What about the IC50 [3] of the same molecule?
The IC50 was 3.84 nM.

What about the IC50 [4] of the same molecule?
The IC50 was 176 nM.

How did the IC50 [1] turn out when `CCCOc1cc(-c2cc(CO)nc(C3COB(O)C3)n2)ccc1OC` (centres unmarked) [Example 198, 4-(4-(hydroxymethyl)-6-(4-methoxy-3-propoxyphenyl)pyrimidin-2-yl)-1,2-oxaborolan-2-ol] was run?
Its IC50 is 1580 nM.

And the IC50 [2]?
The IC50 was 4.85 nM.

What about the IC50 [3] of the same molecule?
Its IC50 is 14.3 nM.

What about the IC50 [4] of the same molecule?
Its IC50 is 14.2 nM.

With `CCOc1c(OC)ccc(-c2cccc(C3COB(O)C3)n2)c1F` (centres unmarked) [Example 199, 4-(6-(3-ethoxy-2-fluoro-4-methoxyphenyl)pyridin-2-yl)-1,2-oxaborolan-2-ol] as the molecule, how does the IC50 [1] read?
The IC50 was 1590 nM.

And the IC50 [2]?
The IC50 was 4.55 nM.

And the IC50 [3]?
Its IC50 is 10.4 nM.

And the IC50 [4]?
The IC50 was 90.4 nM.

For `CCCOc1cc(-n2ccc(C3COB(O)C3)n2)ccc1OC` (centres unmarked) [Example 200, 4-(1-(4-methoxy-3-propoxyphenyl)-1H-pyrazol-3-yl)-1,2-oxaborolan-2-ol], which IC50 [1] is on record?
The IC50 was 1600 nM.

And the IC50 [2]?
Its IC50 is 14.1 nM.

What about the IC50 [3] of the same molecule?
The IC50 was 12.9 nM.

What about the IC50 [4] of the same molecule?
Its IC50 is 128 nM.

For `COc1cc(-c2cncc(C3COB(O)C3)c2)ccc1SC` (centres unmarked) [Example 201, 4-(5-(3-methoxy-4-(methylthio)phenyl)pyridin-3-yl)-1,2-oxaborolan-2-ol], which IC50 [1] is on record?
Its IC50 is 1660 nM.

What about the IC50 [2] of the same molecule?
The IC50 was 9.51 nM.

And the IC50 [3]?
Its IC50 is 2.13 nM.

And the IC50 [4]?
Its IC50 is 105 nM.

With `CCCOc1cc(-c2cc(C3COB(O)C3)cc(CO)n2)ccc1OC` (centres unmarked) [Example 202, 4-(2-(hydroxymethyl)-6-(4-methoxy-3-propoxyphenyl)pyridin-4-yl)-1,2-oxaborolan-2-ol] as the molecule, how does the IC50 [1] read?
The IC50 was 1670 nM.

What about the IC50 [2] of the same molecule?
The IC50 was 8.51 nM.

And the IC50 [3]?
The IC50 was 4.29 nM.

What about the IC50 [4] of the same molecule?
The IC50 was 5.2 nM.

Which results are given for `CCOc1cc(-c2cccc(C3COB(O)C3)n2)ccc1SC` (centres unmarked) [Example 203, 4-(6-(3-ethoxy-4-(methylthio)phenyl)pyridin-2-yl)-1,2-oxaborolan-2-ol]?
IC50 [1]: 2180 nM; IC50 [2]: 114 nM; IC50 [3]: 15 nM; IC50 [4]: 176 nM

What does the source list for `COc1cc(-c2cccc(C3COB(O)C3)c2)ccc1SC` (centres unmarked) [Example 206, 4-(3′-methoxy-4′-(methylthio)-[1,1′-biphenyl]-3-yl)-1,2-oxaborolan-2-ol]?
IC50 [1]: 1790 nM; IC50 [2]: 27.8 nM; IC50 [3]: 2.65 nM; IC50 [4]: 113 nM

`COc1ccc(-c2cc(C)cc(C3COB(O)C3)c2)cc1OC` (centres unmarked) [Example 207, 4-(3′,4′-dimethoxy-5-methyl-[1,1′-biphenyl]-3-yl)-1,2-oxaborolan-2-ol] was tested. Which IC50 [1] did it give?
Its IC50 is 1800 nM.

And the IC50 [2]?
Its IC50 is 53.5 nM.

What about the IC50 [3] of the same molecule?
Its IC50 is 10.3 nM.

What about the IC50 [4] of the same molecule?
The IC50 was 390 nM.

With `COc1ccc(-c2cc(C3COB(O)C3)ccn2)cc1OC1CCCC1` (centres unmarked) [Example 210, 4-(2-(3-(cyclopentyloxy)-4-methoxyphenyl)pyridin-4-yl)-1,2-oxaborolan-2-ol] as the molecule, how does the IC50 [1] read?
The IC50 was 2390 nM.

And the IC50 [2]?
The IC50 was 2.4 nM.

And the IC50 [3]?
Its IC50 is 1.92 nM.

What about the IC50 [4] of the same molecule?
Its IC50 is 17.6 nM.

Which results are given for `CCCOc1cc(-c2nccc(C3COB(O)C3)n2)ccc1OC` (centres unmarked) [Example 212, 4-(2-(4-methoxy-3-propoxyphenyl)pyrimidin-4-yl)-1,2-oxaborolan-2-ol]?
IC50 [1]: 1900 nM; IC50 [2]: 3.29 nM; IC50 [3]: 2.27 nM; IC50 [4]: 103 nM

For `CCCOc1c(OC)ccc(-c2cccc(C3COB(O)C3)n2)c1F` (centres unmarked) [Example 213, 4-(6-(2-fluoro-4-methoxy-3-propoxyphenyl)pyridin-2-yl)-1,2-oxaborolan-2-ol], which IC50 [1] is on record?
The IC50 was 1980 nM.

What about the IC50 [2] of the same molecule?
The IC50 was 3.36 nM.

And the IC50 [3]?
Its IC50 is 6.32 nM.

What about the IC50 [4] of the same molecule?
Its IC50 is 80.9 nM.

What does the source list for `CCCOc1c(OC)ccc(-c2cncc(C3COB(O)C3)n2)c1F` (centres unmarked) [Example 215, 4-(6-(2-fluoro-4-methoxy-3-propoxyphenyl)pyrazin-2-yl)-1,2-oxaborolan-2-ol]?
IC50 [1]: 2050 nM; IC50 [2]: 2.18 nM; IC50 [3]: 2.58 nM; IC50 [4]: 62.7 nM
